18 compounds from US20240010606A1, “FUMARATE DERIVATIVES AND THEIR MEDICAL USE” (Sitryx Therapeutics Limited, priority 2020, published 2024) can be followed below.

Where a name gives a salt, the structure may show the parent alone.

One series has as its system IL-1β. The experiment in a line: THP-1 AlphaLISA IL-1β cytokine assay. It counts as cell-based. The settings on record: for IC50: Homo sapiens, differentiated THP-1 cells, Table 2, compounds of formula (II). As for the experimental part:
(§1) Biological Example 1—THP-1 AlphaLISA IL-1β and IL-6 Cytokine Assay Measuring Inhibitory Effects on IL-1, and IL-6 Cytokine Output from THP-1s The cytokine inhibition profiles of compounds of formula (I) were determined in a differentiated THP-1 cell assay. All assays were performed in RPMI-1640 growth medium (Gibco), supplemented with 10% fetal bovine serum (FBS; Gibco), 1% penicillin-streptomycin and 1% sodium pyruvate unless specified otherwise. The IL-1β and IL-6 cytokine inhibition assays were each run in a background of differentiated THP-1 cells as described below. All reagents described were from Sigma-Aldrich unless specified otherwise. Compounds were prepared as 10 mM DMSO stocks. THP-1 cells were expanded as a suspension up to 80% confluence in appropriate growth medium. Cells were harvested, suspended, and treated with an appropriate concentration of phorbol 12-myristate 13-acetate (PMA) over a 72 hr period (37° C./5% CO2). Following 72 hrs of THP-1 cell incubation, cellular medium was removed and replaced with fresh growth media containing 1% of FBS. Working concentrations of compounds were prepared separately in 10% FBS treated growth medium and pre-incubated with the cells for 30 minutes (37° C./5% CO2). Following the 30 minute compound pre-incubation, THP-1s were treated with an appropriate concentration of LPS and the THP-1s were subsequently incubated for a 24 hr period (37° C./5% CO2). An appropriate final concentration of Nigericin was then dispensed into the THP-1 plates and incubated for 1 hour (37° C./5% CO2) before THP-1 supernatants were harvested and collected in separate polypropylene 96-well holding plates. Reagents from each of the IL-1β and IL-6 commercial kits (Perkin Elmer) were prepared and run according to the manufacturer's instructions. Subsequently, fluorescence signal detection in a microplate reader was measured (EnVision® Multilabel Reader, Perkin Elmer). Percentage inhibition was calculated per cytokine by normalizing the sample data to the high and low controls used within each plate (+/−LPS respectively). Percentage inhibition was then plotted against compound concentration and the 50% inhibitory concentration (IC50) was determined from the resultant concentration-response curve.

The next series deals with IL-6. In words: THP-1 AlphaLISA IL-6 cytokine assay. Particulars: Homo sapiens. It counts as cell-based. As for the experimental part: as §1
The next series deals with NRF2. The experiment in a line: NRF2 activation assay (DiscoverX PathHunter NRF2 translocation kit, U2OS cells). It counts as cell-based. The procedure:
Biological Example 2—NRF2 Activation Assay Measuring Compound Activation Effects on the Anti-Inflammatory Transcription Factor NRF2 in DiscoverX PathHunter NRF2 Translocation Kit Potency and efficacy of compounds of formula (I) against the target of interest to activate NRF2 (nuclear factor erythroid 2-related factor 2) were determined using the PathHunter NRF2 translocation kit (DiscoverX). The NRF2 translocation assay was run using an engineered recombinant cell line, utilising enzyme fragment complementation to determine activation of the Keap1-NRF2 protein complex and subsequent translocation of NRF2 into the nucleus. Enzyme activity was quantified using a chemiluminescent substrate consumed following the formation of a functional enzyme upon PK-tagged NRF2 translocation into the nucleus. Additionally, a defined concentration of dimethyl fumarate was used as the ‘High’ control to normalise test compound activation responses to. U2OS PathHunter eXpress cells were thawed from frozen prior to plating. Following plating, U2OS cells were incubated for 24 hrs (37° C./5% CO2) in commercial kit provided cell medium. Following 24 hrs of U2OS incubation, cells were directly treated with an appropriate final concentration of compound. Following compound treatment, the U2OS plates were incubated for a further 6 hours (37° C./5% CO2) before detection reagent from the PathHunter NRF2 commercial kit was prepared and added to test plates according to the manufacturer's instructions. Subsequently, the luminescence signal detection in a microplate reader was measured (PHERAstar®, BMG Labtech). Percentage activation was calculated by normalising the sample data to the high and low controls used within each plate (+/−DMF). Percentage activation/response was then plotted against compound concentration and the 50% activation concentration (EC50) was determined from the plotted concentration-response curve.

The subject of series [1] is hepatocytes. In words: Hepatocyte stability assay, mouse. It counts as in vitro ADME. The settings on record: 10 μM compound, Table 6. From the text: (§2) Biological Example 3—Hepatocyte Stability Assay
(§3) Defrosted cryo-preserved hepatocytes (viability >70%) are used to determine the metabolic stability of a compound via calculation of intrinsic clearance (CIint; a measure of the removal of a compound from the liver in the absence of blood flow and cell binding). Clearance data are particularly important for […] as they can be used in combination with in vivo data to predict the half-life and oral bioavailability of a drug.
(§4) The metabolic stability in hepatocytes assay involves a time-dependent reaction using both positive and negative controls. The cells must be pre-incubated at 37° C. then spiked with test compound (and positive control); samples taken at pre-determined time intervals are analysed to monitor the change in concentration of the initial drug compound over 60 minutes. A buffer incubation reaction (with no hepatocytes present) acts as a negative control and two cocktail solutions, containing compounds with known high and low clearance values (verapamil/7-hydroxycoumarin and propranolol/diltiazem), act as positive controls. • 1. The assay is run with a cell concentration of 0.5×10^6 cells/mL in Leibovitz buffer. • 2. All compounds and controls are run in duplicate. • 3. Compound concentration is 10 μM. • 4. All compounds and controls are incubated with both cells and buffer to show turnover is due to hepatic metabolism. • 5. All wells on the incubation plate will have 326.7 μL of either cells or buffer added. • 6. Prior to assay, cell and buffer-only incubation plates are preincubated for 10 mins at 37° C. • 7. The assay is initiated by adding compounds, 3.3 μL of 1 mM in 10% DMSO-90% Buffer; final DMSO concentration is 0.1%. • 8. Samples are taken at regular timepoints (0, 5, 10, 20, 40, 60 min) until 60 mins. • 9. Sample volume is 40 μL and it is added to 160 μL of crash solvent (acetonitrile with internal standard) and stored on ice. • 10. At the end of the assay, the crash plates are centrifuged at 3500 rpm for 20 mins at 4° C. • 11. 80 μL of clear supernatant is removed and mixed with 80 μL of deionised water before being analysed by LC-MS/MS.
(§5) Raw LC-MS/MS data are exported to, and analysed in, Microsoft Excel for determination of intrinsic clearance. The percentage remaining of a compound is monitored using the peak area of the initial concentration as 100%. Intrinsic clearance and half-life values are calculated using a graph of the natural log of percentage remaining versus the time of reaction in minutes. Half-life (min) and intrinsic clearance (CIint in μL min^−1 10^−6 cells) values are calculated using the gradient of the graph (the elimination rate constant, k) and Equations 1 and 2.

In series [2] the test system is hepatocytes. In words: Hepatocyte stability assay, human. The class given is in vitro ADME. The settings on record: 10 μM compound, Table 6.
Source text: as §2, §3, §4, §5

[3] abbreviates: THP-1, differentiated THP-1 cells, Table 2, compounds of formula (II).
Setting [4] is: +GSH, Table 4, compounds of formula (II).
The mark [5] stands for this setting: −GSH, Table 4, compounds of formula (II).

Take `O=C(O)/C=C/C(=O)OC1(c2ccc(C(F)F)cc2)CCC1` [Intermediate 31, (E)-4-(1-(4-(difluoromethyl)phenyl)cyclobutoxy)-4-oxobut-2-enoic acid]: the IC50 in the series with IL-1β and with IL-6 (setting [3]) was 6 to 30 µM in each case.

Take `O=C(O)/C=C/C(=O)OC1(c2ncc(C(F)(F)F)cn2)CCC1` [Intermediate 39, (E)-4-oxo-4-(1-(5-(trifluoromethyl)pyrimidin-2-yl)cyclobutoxy)but-2-enoic acid]: the IC50 in the series with IL-1β and in the series with IL-6 (setting [3]) was 30 to 50 µM in each case.

Take `O=C(O)/C=C/C(=O)OC1(c2ccc(C(F)(F)F)cc2)CCOCC1` [Intermediate 35, (E)-4-oxo-4-((4-(4-(trifluoromethyl)phenyl)tetrahydro-2H-pyran-4-yl)oxy)but-2-enoic acid]: the values for the IC50 with IL-1β and with IL-6 (setting [3]) were 50 to 100 µM and > 100 µM, respectively.

On to `O=C(O)/C=C/C(=O)OC1(c2ccccc2C(F)(F)F)CCC1` [Intermediate 11, (E)-4-oxo-4-(1-(2-(trifluoromethyl)phenyl)cyclobutoxy)but-2-enoic acid], for which the IC50 in the series on IL-1β was 50 to 100 µM; in the series on IL-6 (setting [3]), > 100 µM.

Take `O=C(O)/C=C/C(=O)OC1(c2cc(F)c(F)c(F)c2)CCC1` [Intermediate 28, (E)-4-oxo-4-(1-(3,4,5-trifluorophenyl)cyclobutoxy)but-2-enoic acid]: the IC50 in the series with IL-1β and in the series on IL-6 (setting [3]) was 6 to 30 µM throughout.

For the compound `O=C(O)/C=C/C(=O)OC1(c2ccc(Br)cn2)CCC1` [Intermediate 23, (E)-4-(1-(5-bromopyridin-2-yl)cyclobutoxy)-4-oxobut-2-enoic acid], the IC50 in the series on IL-1β lay within 6 to 30 µM; in the series on IL-6 (differentiated THP-1 cells, Table 2, compounds of formula (II)), 6 to 30 µM.

On to `COC(=O)/C=C/C(=O)O` [monomethyl fumarate, Monomethyl fumarate, reference compound], for which the half-maximal inhibitory concentration (IC50) in the series with IL-1β and in the series on IL-6 (setting [3]) was > 100 µM throughout. Moreover, the values for the EC50 in the series with NRF2 (setting [4]) and with NRF2 (setting [5]) were 48.4 µM and 23 µM, respectively. The “NRF2 activation Emax” value in the series on NRF2 (setting [4]) was determined as 87%; in the series on NRF2 (setting [5]), 114%.

As for `O=C(O)/C=C/C(=O)OC(c1ccc(C(F)(F)F)cc1)C(F)(F)F` (single isomer, unassigned) [Intermediate 45, (E)-4-oxo-4-(2,2,2-trifluoro-1-(4-(trifluoromethyl)phenyl)ethoxy)but-2-enoic acid], in the series with hepatocytes [1], the CIint result is on record as “+ (+ means >110-277)” and the T½ turned out to be 4 min. In the series with hepatocytes [2], the CIint result is given as “++ (++ means >30-110)” and the T½ entry was “++ (++ means 5-29)”.

For the compound `CCCCCCCCOC(=O)/C=C/C(=O)O` [Intermediate 5, Octyl Fumarate], in the series with NRF2 (setting [4]), the EC50 is < 23 µM and the “NRF2 activation Emax” value is on record as “++++ (++++ means >150%)”. In the series on NRF2 (setting [5]), the EC50 is < 23 µM and the “NRF2 activation Emax” value is on record as “++++ (++++ means >150%)”.

As for `O=C(O)/C=C/C(=O)OC1(c2ccc(C(F)(F)F)cn2)CCC1` [Intermediate 9, (E)-4-oxo-4-(1-(5-(trifluoromethyl)pyridin-2-yl)cyclobutoxy)but-2-enoic acid], the IC50 in the series with IL-1β and in the series on IL-6 (setting [3]) was 6 to 30 µM in each case.

In the case of `N#Cc1ccc(C2(OC(=O)/C=C/C(=O)O)CCC2)cc1` [Intermediate 27, (E)-4-(1-(4-cyanophenyl)cyclobutoxy)-4-oxobut-2-enoic acid], the IC50 in the series on IL-1β is 50 to 100 µM; in the series with IL-6 (setting [3]), 6 to 30 µM.

As to `O=C(O)/C=C/C(=O)OC1(c2ccc(Cl)cc2)CCC1` [Intermediate 13, (E)-4-(1-(4-chlorophenyl)cyclobutoxy)-4-oxobut-2-enoic acid], the IC50 in the series with IL-1β and in the series with IL-6 (setting [3]) was 6 to 30 µM throughout.

In the case of `N#C[C@H]1C[C@](OC(=O)/C=C/C(=O)O)(c2ccc(C(F)(F)F)cc2)C1` (single isomer, unassigned) [Intermediate 34, (E)-4-((cis)-3-cyano-1-(4-(trifluoromethyl)phenyl)cyclobutoxy)-4-oxobut-2-enoic acid], the figures for the IC50 in the series on IL-1β and with IL-6 (setting [3]) were 6 to 30 µM and 30 to 50 µM, respectively.

`CC1(OC(=O)/C=C/C(=O)O)CCC1` [Intermediate 4, (E)-4-(1-methylcyclobutoxy)-4-oxobut-2-enoic acid]: the IC50 in the series on IL-1β was > 100 µM. Moreover, the “activity in the THP-1 cytokine assays (in words)” value in the series with IL-1β (THP-1 IL-1β and IL-6 assays) was “not active”. Also, in the series with NRF2 (setting [4]), the EC50 fell in the range of 23 to 48.4 µM and the “NRF2 activation Emax” value was “+ (+ means >50-<87%)”. Besides, in the series on NRF2 (setting [5]), the EC50 was < 23 µM and the “NRF2 activation Emax” value is given as “+++ (+++ means >114-150%)”.

On to `O=C(O)/C=C/C(=O)OC1(c2ccc(Cl)cn2)CCC1` [Intermediate 24, (E)-4-(1-(5-chloropyridin-2-yl)cyclobutoxy)-4-oxobut-2-enoic acid], for which the IC50 with IL-1β lay within 30 to 50 µM; with IL-6 (setting [3]), 6 to 30 µM.

For the compound `O=C(O)/C=C/C(=O)OC1(c2ccc(C(F)(F)F)nc2)CCC1` [Intermediate 15, (E)-4-oxo-4-(1-(6-(trifluoromethyl)pyridin-3-yl)cyclobutoxy)but-2-enoic acid], the IC50 in the series on IL-1β is 30 to 50 µM; with IL-6 (setting [3]), > 100 µM.

As for `COC(=O)/C=C/C(=O)OC` [dimethyl fumarate, Dimethyl fumarate, reference compound], the EC50 is > 100 µM with NRF2 (+GSH, Table 3) and 6.1 µM with NRF2 (−GSH, Table 3). Moreover, the “NRF2 activation Emax” value with NRF2 (+GSH, normalised to dimethyl fumarate high control, Table 3) turned out to be 17.1%; in the series on NRF2 (−GSH, normalised to dimethyl fumarate high control, Table 3), 100%. The compound further had an IC50 with IL-6 (THP-1, differentiated THP-1 cells, LPS then Nigericin, Table 1) of 9.3 µM.

On to `COc1cc(OC)cc(C2(OC(=O)/C=C/C(=O)O)CCC2)c1` [Intermediate 40, (E)-4-(1-(3,5-dimethoxyphenyl)cyclobutoxy)-4-oxobut-2-enoic acid], for which the IC50 was > 100 µM in the series with IL-1β and 30 to 50 µM in the series with IL-6 (setting [3]).
